# According to patent US20080318892A1, “METHODS AND FORMULATIONS FOR PROTECTING CELLS, AND FOR TREATING DISEASES AND CONDITIONS BY OPTIMIZING THE INTRACELLULAR CONCENTRATION OF NAD” (priority 2007, published 2008):
# Assays:
# [1] = tested on: HITC6 SMCs; experiment: Senescence-associated beta-galactosidase activity / senescence-free survival; assay type: cell-based, human
# Description: Senescence-associated β-Galatosidase Activity Assay. SMCs on glass coverslips at approximately 70% confluence were fixed in 2% formaldehyde/0.2% glutaraldehyde in PBS for 3 minutes and incubated with X-gal-containing reaction mixture, as previously described (Dimri, 1995). Washed cells were stained with Hoechst 33258 (2.5 μg/ml) and the proportion of senescence-associated β-galactosidase (SA β-Gal)-positive cells quantified from 10 microscope fields of view (Olympus BX51, ×20 objective, approximately 1200 cells). Senescence-free survival was determined using Kaplan-Meier analysis of survival vs. replicative age.
# Senescence-associated Beta-galactosidase Activity. Senescence-associated beta-galactosidase (SA-β-gal) activity was determined as previously described (Dimri et al, 1995). Briefly, SMCs were fixed in PBS containing 2% formaldehyde/0.2% glutaraldehyde for 3 min at room temperature. Fixed cells were then incubated for 4-6 h at 37° C. with SA-β-gal stain solution containing 150 mM NaCl, 2 mM MgCl, 40 mM citrate, 5 mM potassium ferrocyanide, 5 mM potassium ferricyanide, and 1 mg/ml of 5-bromo-4-chloro-3-indolyl-β-D-galactopyranoside (X-gal) (Invitrogen, Carlsbad, Calif., USA), at pH 6.0. SMCs were counterstained with 2.5 μg/ml Hoechst 33258 to detect cell nuclei. The proportion of SA-β-gal activity positive cells was quantified using light and fluorescence microscopy (Olympus BX51, Center Valley, Pa., USA).
# [2] = tested on: HDAC; experiment: Histone deacetylase (HDAC) assay in SMC lysates with [3H]-acetylated histone H4 peptide; assay type: biochemical, human; conditions: HITC6-PBEF SMC lysates, vehicle
# Description: HITC6 SMC's were stably transduced with pQXCIP-PURO or pQXCIP-PBEF-PURO and HDAC activity determined in cell lysates (25 μg of protein), using [^3H]histone H4 peptide as the substrate. The reactions were quenched by acid hydrolysis and catalytically released [^3H]-acetate was extracted in ethyl acetate.
# Histone Deacetylase (HDAC) Assays were employed. Histone H4 peptide (Upstate) was labeled with [^3H]-acetyl Coenzyme A (ICN) using PCAF histone acetylase. Cell lysates were harvested using Passive Lysis Buffer (Promega) and 25 μg of protein was incubated at 37° C. for 6 hours with 50,000 cpm of [^3H]-acetyl histone and 1 mM PMSF in HDAC Assay Buffer (Upstate). Released [^3H]-acetate was extracted with ethyl acetate (31) and counted on a Beckman LS3801 scintillation counter.
# [3] = tested on: HITB5 SMC's; experiment: Apoptosis by TUNEL; assay type: cell-based, human; conditions: PBEF-overexpressing HITB5 SMCs; p<0.01
# Description: Cell Proliferation, DNA Synthesis, and Apoptosis were also evaluated. To assess SMC proliferation, cells were plated at a density of 3000 cells per cm^2 and cultured in M199 containing 5% FBS. Triplicate wells were harvested at the designated times and counted using a hemacytometer. To quantify DNA synthesis, cells in log-phase growth were incubated for 12 hours with [^3H]thymidine (10 μCi/mL) and TCA-precipitable counts determined as described (5). Thymidine incorporation was expressed relative to DNA content, quantified by spectrofluorimetry of an aliquot of cell lysate incubated with 500 μg/ml Hoechst 33258. Apoptosis was assessed in SMCs seeded on glass coverslips by in situ end-labeling of DNA fragments using terminal deoxynucleotide transferase and fluorescein 12-dUTP (Promega) (5). Cells were fixed with 4% paraformaldehyde and counterstained with Hoechst 33258.
# [4] = tested on: HITC6 SMCs; experiment: Replicative lifespan (cumulative population doublings) of HITC6 SMCs; assay type: cell-based, human
# Description: To quantify replication, cells were plated at 4500 cells/cm^2 and growth medium with 10% FBS was changed every two days until cells reached 90-95% confluence. Harvested cells were counted from triplicate plates and the number of population doublings was calculated based on: [log10(number of cells harvested)−log10(number of cells seeded)]/[…] (Fukuhara, 2005). Population growth curves were compared using both nonlinear regression and two-way analysis of variance.
# Cell Culture. Experiments were performed using primary human SMCs and the HITC6 clonal SMC line, both derived from segments of human internal thoracic artery (Li et al., 1999; Li et al., 2001). SMCs were maintained at 37° C. with 5% CO2 and cultured in Medium 199 (Invitrogen, Carlsbad, Calif., USA) supplemented with 25 mM HEPES, 10% FBS, 1% penicillin/streptomycin, and 1% L-glutamine. Phoenix cells (distributed by ATCC, Manassas, Va., USA) were maintained at 37° C. with 5% CO2 and cultured in Dulbecco's modified Eagle's medium (Invitrogen, Carlsbad, Calif., USA). To quantify replication, cells were seeded at a density of 4500 cells/cm2 and population doublings were calculated using the following formula: […].
substance,measurement,setting,value
"PBEF: 52-55 kD protein, rate-limiting enzyme for NAD+ biosynthesis from nicotinamide; tested by retroviral cDNA overexpression in cells",senescence-free survival (Kaplan-Meier) vs vector-infected cells,"[1]; PBEF-overexpressing SMCs, p<0.0001",markedly extended
same,reduction in senescent SMCs,"[1]; late-passage (37th) PBEF-overexpressing SMCs, p=0.003",19±2%
same,total HDAC activity vs HITC6-Vector SMC's,[2],significantly greater
same,proportion of apoptotic SMC's relative to HITB5-EGFP SMC's,[3],approximately half
same,additional population doublings,[4]; HITC6 SMCs overexpressing Nampt,6.3±0.3 population doublings
same,extension of lifespan,"[4]; HITC6 SMCs overexpressing Nampt, p=0.003",71±7%
same,additional population doublings conferred by Nampt,"[4]; double-transduction experiment, Nampt without SIRT1 H363Y",5.4±0.5 population doublings
